By inhibition is commonly meant the change of the read-out against control, counted positive when it falls.

What all share (assay): KINOMEscan competitive binding, whole panel
Test [1] addresses T1, panel of 203 kinases (Homo sapiens, UniProt Q9Y2H1).
T1 construct: purchased DiscoverX (KINOMEscan)
The settings on record: 10 µM, n=1; kinase NDR2; read-out: Percent inhibition NDR2. Summed up: (§1)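 This competitive binding format measures displacement of T7 phage-tagged kinases from an immobilized ATP-site ligand by the test compound; values are percentage inhibition.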

Test [2] deals with T2, panel of 203 kinases (Homo sapiens, UniProt Q96L34).
T2 construct: purchased DiscoverX (KINOMEscan)
T2 sequence (Q96L34 1-752): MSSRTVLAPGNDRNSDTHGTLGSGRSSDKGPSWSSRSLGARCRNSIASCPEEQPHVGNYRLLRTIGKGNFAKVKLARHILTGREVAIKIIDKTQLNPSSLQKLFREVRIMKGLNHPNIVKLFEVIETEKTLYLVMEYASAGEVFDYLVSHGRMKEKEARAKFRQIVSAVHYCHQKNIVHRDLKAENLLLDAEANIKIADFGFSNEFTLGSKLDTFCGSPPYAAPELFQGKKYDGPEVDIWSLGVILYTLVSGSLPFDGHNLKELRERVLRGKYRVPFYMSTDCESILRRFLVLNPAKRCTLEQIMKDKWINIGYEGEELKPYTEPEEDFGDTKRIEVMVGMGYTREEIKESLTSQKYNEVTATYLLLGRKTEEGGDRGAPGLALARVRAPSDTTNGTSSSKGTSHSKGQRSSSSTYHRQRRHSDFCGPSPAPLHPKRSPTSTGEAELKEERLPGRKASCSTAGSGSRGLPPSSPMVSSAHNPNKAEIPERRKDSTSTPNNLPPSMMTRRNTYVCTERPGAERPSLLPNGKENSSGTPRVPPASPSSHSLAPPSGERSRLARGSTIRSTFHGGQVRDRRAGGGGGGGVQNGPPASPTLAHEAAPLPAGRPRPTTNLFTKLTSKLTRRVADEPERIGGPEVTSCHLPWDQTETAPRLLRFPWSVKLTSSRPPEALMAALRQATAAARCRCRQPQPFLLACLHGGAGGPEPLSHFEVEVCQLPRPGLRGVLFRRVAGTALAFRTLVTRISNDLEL
The settings on record: 10 µM, n=1; kinase MARK4; read-out: Percent inhibition MARK4. The method, boiled down: as §1

Test [3] concerns the target T3, panel of 203 kinases (Homo sapiens, UniProt P29317).
T3 construct: purchased DiscoverX (KINOMEscan)
The settings on record: 10 µM, n=1; kinase EPHA2; read-out: Percent inhibition EPHA2. Summed up: as §1

For test [4], the target named is T4, panel of 203 kinases (Homo sapiens, UniProt P11362).
T4 construct: purchased DiscoverX (KINOMEscan)
T4 sequence (P11362 22-822): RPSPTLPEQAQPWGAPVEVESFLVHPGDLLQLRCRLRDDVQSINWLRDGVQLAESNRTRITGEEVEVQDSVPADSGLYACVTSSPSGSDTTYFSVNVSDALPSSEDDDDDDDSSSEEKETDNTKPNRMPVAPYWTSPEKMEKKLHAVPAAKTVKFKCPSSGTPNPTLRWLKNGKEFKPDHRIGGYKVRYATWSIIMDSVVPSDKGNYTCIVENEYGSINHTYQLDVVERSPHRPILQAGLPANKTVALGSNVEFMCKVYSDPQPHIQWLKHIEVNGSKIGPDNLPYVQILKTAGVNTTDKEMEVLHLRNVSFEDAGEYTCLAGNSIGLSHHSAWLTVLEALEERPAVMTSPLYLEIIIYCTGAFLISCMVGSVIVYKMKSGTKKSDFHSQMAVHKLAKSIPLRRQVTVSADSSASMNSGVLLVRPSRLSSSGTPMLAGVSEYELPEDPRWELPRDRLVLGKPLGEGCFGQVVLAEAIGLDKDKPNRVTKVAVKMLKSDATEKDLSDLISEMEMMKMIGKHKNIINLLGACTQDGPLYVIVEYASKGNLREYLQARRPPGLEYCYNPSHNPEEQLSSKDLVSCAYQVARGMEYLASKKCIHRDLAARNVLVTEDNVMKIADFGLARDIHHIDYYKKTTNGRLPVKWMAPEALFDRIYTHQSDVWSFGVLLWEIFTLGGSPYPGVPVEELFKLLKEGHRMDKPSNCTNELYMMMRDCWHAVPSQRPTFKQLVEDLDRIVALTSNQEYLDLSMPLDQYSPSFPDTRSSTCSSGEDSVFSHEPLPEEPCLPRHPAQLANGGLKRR
The settings on record: 10 µM, n=1; kinase FGFR1; read-out: Percent inhibition FGFR1. Summed up: as §1

Test [5] deals with T5, panel of 203 kinases (Homo sapiens, UniProt P08069).
T5 construct: purchased DiscoverX (KINOMEscan)
The settings on record: 10 µM, n=1; kinase IGF1R; read-out: Percent inhibition IGF1R. Summed up: as §1

For test [6], the target named is T6, panel of 203 kinases (Homo sapiens, UniProt Q9HAZ1).
T6 construct: purchased DiscoverX (KINOMEscan)
T6 sequence (Q9HAZ1 whole entry): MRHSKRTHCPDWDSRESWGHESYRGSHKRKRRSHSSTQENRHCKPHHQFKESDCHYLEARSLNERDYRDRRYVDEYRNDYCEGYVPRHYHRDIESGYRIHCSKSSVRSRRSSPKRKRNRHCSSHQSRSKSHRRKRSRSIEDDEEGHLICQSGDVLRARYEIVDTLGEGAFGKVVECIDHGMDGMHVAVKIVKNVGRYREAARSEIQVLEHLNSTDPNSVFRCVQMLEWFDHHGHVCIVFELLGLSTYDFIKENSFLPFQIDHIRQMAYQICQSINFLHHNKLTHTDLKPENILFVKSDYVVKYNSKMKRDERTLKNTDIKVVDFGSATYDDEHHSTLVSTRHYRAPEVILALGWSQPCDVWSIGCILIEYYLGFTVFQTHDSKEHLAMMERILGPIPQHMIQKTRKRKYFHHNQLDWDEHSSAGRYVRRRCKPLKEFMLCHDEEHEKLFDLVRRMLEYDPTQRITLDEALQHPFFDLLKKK
The settings on record: 10 µM, n=1; kinase CLK4; read-out: Percent inhibition CLK4. Summed up:
as §1

Test [7] concerns the target T7, panel of 203 kinases (Homo sapiens, UniProt P27361).
T7 construct: purchased DiscoverX (KINOMEscan)
The settings on record: 10 µM, n=1; kinase ERK1; read-out: Percent inhibition ERK1. Summed up: as §1

In test [8] the target is T8, panel of 203 kinases (Homo sapiens, UniProt P22607).
T8 construct: purchased DiscoverX (KINOMEscan)
T8 sequence (P22607 23-806): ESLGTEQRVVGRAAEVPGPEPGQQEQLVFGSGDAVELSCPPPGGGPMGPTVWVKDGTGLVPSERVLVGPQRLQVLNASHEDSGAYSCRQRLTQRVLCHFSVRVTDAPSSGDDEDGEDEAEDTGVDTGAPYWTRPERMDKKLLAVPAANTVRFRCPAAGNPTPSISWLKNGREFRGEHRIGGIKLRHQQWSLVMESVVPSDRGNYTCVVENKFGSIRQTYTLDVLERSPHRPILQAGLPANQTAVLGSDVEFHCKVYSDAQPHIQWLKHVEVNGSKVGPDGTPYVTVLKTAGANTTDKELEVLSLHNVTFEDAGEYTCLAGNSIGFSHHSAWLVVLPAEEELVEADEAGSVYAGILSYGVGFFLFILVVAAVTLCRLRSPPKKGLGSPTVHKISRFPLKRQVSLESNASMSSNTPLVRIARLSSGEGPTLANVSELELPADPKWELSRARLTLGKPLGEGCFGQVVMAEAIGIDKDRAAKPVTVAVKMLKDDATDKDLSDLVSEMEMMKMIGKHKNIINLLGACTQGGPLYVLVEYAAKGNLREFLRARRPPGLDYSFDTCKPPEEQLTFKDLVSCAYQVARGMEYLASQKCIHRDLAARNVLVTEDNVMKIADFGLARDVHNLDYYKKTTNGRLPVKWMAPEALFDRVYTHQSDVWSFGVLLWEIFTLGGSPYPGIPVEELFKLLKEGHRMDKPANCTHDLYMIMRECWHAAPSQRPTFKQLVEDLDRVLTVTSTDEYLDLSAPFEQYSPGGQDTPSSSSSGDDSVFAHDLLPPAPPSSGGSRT
The settings on record: 10 µM, n=1; kinase FGFR3; read-out: Percent inhibition FGFR3. Summed up: as §1

The target of test [9] is T9, panel of 203 kinases (Homo sapiens, UniProt Q8N752).
T9 construct: purchased DiscoverX (KINOMEscan)
T9 sequence (Q8N752 1-337): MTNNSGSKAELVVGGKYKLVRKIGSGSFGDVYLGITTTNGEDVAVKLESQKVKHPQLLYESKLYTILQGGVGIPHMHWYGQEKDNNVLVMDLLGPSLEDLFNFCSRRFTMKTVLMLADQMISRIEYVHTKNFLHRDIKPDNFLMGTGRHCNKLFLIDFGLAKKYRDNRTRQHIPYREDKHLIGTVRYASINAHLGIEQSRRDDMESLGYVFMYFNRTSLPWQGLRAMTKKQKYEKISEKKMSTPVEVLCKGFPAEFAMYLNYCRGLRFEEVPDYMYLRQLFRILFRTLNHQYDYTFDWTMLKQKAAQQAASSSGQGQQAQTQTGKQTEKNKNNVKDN
The settings on record: 10 µM, n=1; kinase CSNK1A1L; read-out: Percent inhibition CSNK1A1L. Summed up: as §1

Test [10] addresses T10, panel of 203 kinases (Homo sapiens, UniProt P15056).
T10 construct: purchased DiscoverX (KINOMEscan)
The settings on record: 10 µM, n=1; kinase BRAF; read-out: Percent inhibition BRAF. The method, boiled down:
as §1

In test [11] the target is T11, panel of 203 kinases (Homo sapiens, UniProt P53671).
T11 construct: purchased DiscoverX (KINOMEscan)
The settings on record: 10 µM, n=1; kinase LIMK2; read-out: Percent inhibition LIMK2. Summed up:
as §1

Test [12] concerns the target T12, panel of 203 kinases (Homo sapiens, UniProt Q15375).
T12 construct: purchased DiscoverX (KINOMEscan)
The settings on record: 10 µM, n=1; kinase EPHA7; read-out: Percent inhibition EPHA7. Summed up:
as §1

Test [13] deals with T13, panel of 203 kinases (Homo sapiens, UniProt Q7KZI7).
T13 construct: purchased DiscoverX (KINOMEscan)
T13 sequence (Q7KZI7 whole entry): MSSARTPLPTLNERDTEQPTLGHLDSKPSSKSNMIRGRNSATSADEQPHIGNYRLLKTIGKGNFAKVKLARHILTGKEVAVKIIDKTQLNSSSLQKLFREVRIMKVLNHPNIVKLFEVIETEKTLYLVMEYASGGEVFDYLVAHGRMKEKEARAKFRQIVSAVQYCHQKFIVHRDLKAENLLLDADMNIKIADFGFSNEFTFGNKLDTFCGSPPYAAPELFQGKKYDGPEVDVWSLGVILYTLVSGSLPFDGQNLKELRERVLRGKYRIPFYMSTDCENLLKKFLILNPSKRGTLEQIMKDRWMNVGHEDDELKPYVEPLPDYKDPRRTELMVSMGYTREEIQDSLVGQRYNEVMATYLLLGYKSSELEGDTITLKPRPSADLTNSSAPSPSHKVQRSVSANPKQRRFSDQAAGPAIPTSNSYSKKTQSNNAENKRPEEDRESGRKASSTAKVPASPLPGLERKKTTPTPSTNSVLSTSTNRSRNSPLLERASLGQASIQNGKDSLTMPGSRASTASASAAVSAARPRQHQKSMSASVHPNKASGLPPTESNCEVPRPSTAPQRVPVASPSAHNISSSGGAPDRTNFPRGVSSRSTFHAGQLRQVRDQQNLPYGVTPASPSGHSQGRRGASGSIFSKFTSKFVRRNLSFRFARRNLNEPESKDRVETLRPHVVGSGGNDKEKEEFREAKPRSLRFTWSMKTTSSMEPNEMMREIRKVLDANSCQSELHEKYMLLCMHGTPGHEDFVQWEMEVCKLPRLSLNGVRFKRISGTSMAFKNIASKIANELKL
The settings on record: 10 µM, n=1; kinase MARK2; read-out: Percent inhibition MARK2. The method, boiled down:
as §1

In test [14] the target is T14, panel of 203 kinases (Homo sapiens, UniProt Q8TDX7).
T14 construct: purchased DiscoverX (KINOMEscan)
T14 sequence (Q8TDX7 whole entry): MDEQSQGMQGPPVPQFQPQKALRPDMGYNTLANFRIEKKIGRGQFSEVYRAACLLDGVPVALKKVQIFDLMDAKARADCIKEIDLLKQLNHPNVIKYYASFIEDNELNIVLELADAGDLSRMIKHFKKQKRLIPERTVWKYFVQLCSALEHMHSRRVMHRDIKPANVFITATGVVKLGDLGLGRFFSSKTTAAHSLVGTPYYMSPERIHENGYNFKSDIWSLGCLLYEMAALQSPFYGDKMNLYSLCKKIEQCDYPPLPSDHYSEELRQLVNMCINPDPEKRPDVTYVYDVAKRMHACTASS
The settings on record: 10 µM, n=1; kinase NEK7; read-out: Percent inhibition NEK7. The method, boiled down: as §1

Test [15] deals with T15, panel of 203 kinases (Homo sapiens, UniProt Q96NX5).
T15 construct: purchased DiscoverX (KINOMEscan)
T15 sequence (Q96NX5 whole entry): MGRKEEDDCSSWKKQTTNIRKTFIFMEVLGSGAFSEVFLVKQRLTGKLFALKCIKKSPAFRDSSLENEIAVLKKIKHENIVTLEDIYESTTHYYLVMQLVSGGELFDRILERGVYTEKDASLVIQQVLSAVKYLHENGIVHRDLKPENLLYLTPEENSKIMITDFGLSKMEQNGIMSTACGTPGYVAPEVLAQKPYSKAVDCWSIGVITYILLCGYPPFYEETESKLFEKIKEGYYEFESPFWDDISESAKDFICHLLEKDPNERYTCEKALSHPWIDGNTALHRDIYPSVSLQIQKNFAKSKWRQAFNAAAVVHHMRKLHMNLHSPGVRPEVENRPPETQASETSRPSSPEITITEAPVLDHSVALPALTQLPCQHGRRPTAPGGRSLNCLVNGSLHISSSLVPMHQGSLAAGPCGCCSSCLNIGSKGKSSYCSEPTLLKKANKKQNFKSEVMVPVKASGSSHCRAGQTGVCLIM
The settings on record: 10 µM, n=1; kinase CAMK1G; read-out: Percent inhibition CAMK1G. Summed up:
as §1

For test [16], the target named is T16, panel of 203 kinases (Homo sapiens, UniProt Q9H1R3).
T16 construct: purchased DiscoverX (KINOMEscan)
The settings on record: 10 µM, n=1; kinase MYLK2; read-out: Percent inhibition MYLK2. Summed up: as §1

Test [17] deals with T17, panel of 203 kinases (Homo sapiens, UniProt P78368).
T17 construct: purchased DiscoverX (KINOMEscan)
T17 sequence (P78368 whole entry): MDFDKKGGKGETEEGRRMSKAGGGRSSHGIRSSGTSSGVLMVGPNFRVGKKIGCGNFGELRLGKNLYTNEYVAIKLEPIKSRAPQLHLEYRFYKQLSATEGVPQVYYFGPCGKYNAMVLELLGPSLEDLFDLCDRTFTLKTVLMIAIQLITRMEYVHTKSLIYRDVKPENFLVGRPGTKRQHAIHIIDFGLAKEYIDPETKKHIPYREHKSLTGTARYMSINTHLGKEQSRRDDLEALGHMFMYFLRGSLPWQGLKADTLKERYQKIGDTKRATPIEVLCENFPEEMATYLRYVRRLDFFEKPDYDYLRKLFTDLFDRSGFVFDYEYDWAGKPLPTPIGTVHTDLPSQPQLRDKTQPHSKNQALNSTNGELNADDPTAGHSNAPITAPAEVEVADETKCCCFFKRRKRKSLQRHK
The settings on record: 10 µM, n=1; kinase CSNK1G2; read-out: Percent inhibition CSNK1G2. The method, boiled down: as §1

Test [18] concerns the target T18, panel of 203 kinases (Homo sapiens, UniProt P04626).
T18 construct: purchased DiscoverX (KINOMEscan)
The settings on record: 10 µM, n=1; kinase ERBB2; read-out: Percent inhibition ERBB2. Summed up: as §1

T7 sequence (P27361 whole entry): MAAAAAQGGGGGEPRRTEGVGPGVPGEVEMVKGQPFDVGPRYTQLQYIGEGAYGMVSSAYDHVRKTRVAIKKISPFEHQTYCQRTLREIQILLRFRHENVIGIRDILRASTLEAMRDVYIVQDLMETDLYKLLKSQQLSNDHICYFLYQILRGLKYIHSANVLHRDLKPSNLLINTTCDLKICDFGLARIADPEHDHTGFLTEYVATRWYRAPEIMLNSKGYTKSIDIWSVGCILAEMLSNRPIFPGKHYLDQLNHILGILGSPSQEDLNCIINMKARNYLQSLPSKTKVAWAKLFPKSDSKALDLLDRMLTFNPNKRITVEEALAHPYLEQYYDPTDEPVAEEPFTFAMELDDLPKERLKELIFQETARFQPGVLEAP
T1 sequence (Q9Y2H1 whole entry): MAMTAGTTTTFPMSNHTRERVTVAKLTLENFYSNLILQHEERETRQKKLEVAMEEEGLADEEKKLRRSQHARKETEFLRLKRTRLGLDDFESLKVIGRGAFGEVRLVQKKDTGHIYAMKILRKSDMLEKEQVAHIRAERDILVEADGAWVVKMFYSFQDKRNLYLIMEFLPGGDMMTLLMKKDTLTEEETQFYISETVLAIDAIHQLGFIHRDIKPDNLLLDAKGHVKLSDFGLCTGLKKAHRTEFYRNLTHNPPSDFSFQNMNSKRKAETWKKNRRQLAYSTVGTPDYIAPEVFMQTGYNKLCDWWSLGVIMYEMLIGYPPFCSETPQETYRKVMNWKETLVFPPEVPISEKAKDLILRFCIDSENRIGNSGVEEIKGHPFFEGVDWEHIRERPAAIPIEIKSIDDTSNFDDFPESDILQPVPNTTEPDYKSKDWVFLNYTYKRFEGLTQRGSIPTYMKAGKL

Regarding `Cc1ccc(O)cc1N(C)c1ccnc(Nc2cccc(S(N)(=O)=O)c2)n1` [Compound 4], the inhibition at 10 µM on panel of 203 kinases [1] was 69.4%; at panel of 203 kinases [2], 0%; at panel of 203 kinases [3], 99.5%; on panel of 203 kinases [4] it was 0%; at panel of 203 kinases [5], 0%; at panel of 203 kinases [6], 0%. Moreover, the inhibition at 10 µM was 98.1% at panel of 203 kinases [7]; 65.4% at panel of 203 kinases [8]; 100% at panel of 203 kinases [9]; 0% at panel of 203 kinases [10]; 96% on panel of 203 kinases [11]; 100% at panel of 203 kinases [12]. Besides, the inhibition at 10 µM amounted to 66% at panel of 203 kinases [13]; 0% on panel of 203 kinases [14]; 0% at panel of 203 kinases [15]; 0% on panel of 203 kinases [16]; 75.8% on panel of 203 kinases [17]; 0% at panel of 203 kinases [18].

Consider `COc1ccc(Nc2nccc(-c3cnn4ncccc34)n2)cc1` [Compound 2], for which the inhibition at 10 µM at panel of 203 kinases [1] was 91.7%; at panel of 203 kinases [2], 67.8%; on panel of 203 kinases [3], 0%; on panel of 203 kinases [4] it was 0%; on panel of 203 kinases [5] it was 98.1%; at panel of 203 kinases [6], 98.7%. Also, the inhibition at 10 µM is 98.5% on panel of 203 kinases [7]; 67.6% on panel of 203 kinases [8]; 89.7% on panel of 203 kinases [9]; 99.6% on panel of 203 kinases [10]; 88% at panel of 203 kinases [11]; 74.6% at panel of 203 kinases [12]. In addition, the inhibition at 10 µM at panel of 203 kinases [13] was found to be 0%; on panel of 203 kinases [14], 100%; on panel of 203 kinases [15], 71.5%; on panel of 203 kinases [16], 80.5%; at panel of 203 kinases [17], 93.6%; at panel of 203 kinases [18] it was 0%.

As for `Nc1ncc2c(-c3ccncc3)c[nH]c2n1` [Compound 11], the inhibition at 10 µM at panel of 203 kinases [1] stood at 0%; on panel of 203 kinases [2], 93.8%; on panel of 203 kinases [3] it was 0%; on panel of 203 kinases [4], 0%; on panel of 203 kinases [5], 0%; at panel of 203 kinases [6], 93.4%. The inhibition at 10 µM on panel of 203 kinases [7] is 0%; on panel of 203 kinases [8] it was 0%; at panel of 203 kinases [9], 70.7%; at panel of 203 kinases [10], 0%; at panel of 203 kinases [11] it was 0%; at panel of 203 kinases [12] it was 0%. The inhibition at 10 µM at panel of 203 kinases [13] worked out at 0%; at panel of 203 kinases [14], 0%; at panel of 203 kinases [15] it was 0%; at panel of 203 kinases [16], 84.9%; on panel of 203 kinases [17], 89.7%; at panel of 203 kinases [18], 0%.

On to `COc1cc(Nc2nccc(-c3sc(N)nc3-c3cccc(NC(=O)c4c(F)cccc4F)c3)n2)cc(OC)c1OC` [Compound 7], for which the inhibition at 10 µM was found to be 100% at panel of 203 kinases [1]; 0% on panel of 203 kinases [2]; 99.4% on panel of 203 kinases [3]; 99.7% on panel of 203 kinases [4]; 95.9% on panel of 203 kinases [5]; 0% at panel of 203 kinases [6]. The inhibition at 10 µM at panel of 203 kinases [7] is 99.8%; on panel of 203 kinases [8] it was 100%; at panel of 203 kinases [9], 0%; on panel of 203 kinases [10] it was 100%; on panel of 203 kinases [11], 100%; on panel of 203 kinases [12], 0%. The inhibition at 10 µM at panel of 203 kinases [13] turned out to be 73.7%; on panel of 203 kinases [14] it was 91.3%; on panel of 203 kinases [15], 69.4%; on panel of 203 kinases [16], 97%; at panel of 203 kinases [17], 0%; at panel of 203 kinases [18], 100%.

(Values after PMC9927415, “Tyrosine Kinase Inhibitors Display Potent Activity against Cryptosporidium parvum” (Microbiology Spectrum, 2022).)
